Reference: US7879795B2, “Enhancement of tigecycline potency using efflux pump inhibitors” (Mpex Pharmaceuticals, Inc., priority 2004, dated 2011)

Assays:
PAM1723 = conditions: Table 3
Experimental: Stability in rat and human serum was also evaluated using a bioassay. 320 μg/ml of the test compound was treated with 50% serum for 4 hours.
Bioassays as described in Example 62 and Example 65 were used to evaluate the stability of various compounds in serum and rabbit kidney homogenates.

[1] = tested on: PAM 1753, MexEF-OprN over-expressed; assay: Tigecycline potentiation checkerboard assay, PAM 1753; assay type: cell-based, P. aeruginosa; parameters: Tigecycline MIC in the presence of Compound 21: unit not given here; conditions: PAM 1753
Experimental: (§1) The ability of compound 21 to increase susceptibility to tigecycline was also assessed. The tigecycline potentiating activity of compound 21 was assessed by the checkerboard assay (Antimicrobial Combinations, Antibiotics in Laboratory Medicine, ed. Victor Lorian, M.D., Fourth edition, 1996, pp 333-338, which is incorporated herein by reference in its entirety) using a broth micro-dilution method performed as recommended by the CSLI (Clinical and Laboratory Standards Institute, formerly NCCLS) guidelines (National Committee for Clinical Laboratory Standards 2003. Methods for Dilution Antimicrobial Susceptibility Tests for Bacteria That Grow Aerobically—Sixth Edition; Approved Standard. NCCLS Document M7-A6, Vol 20 No. 2). In this assay, multiple dilutions of the two drugs, compound 21 and tigecycline, were tested alone and in combination, at concentrations equal to, above and below their respective minimal inhibitory concentrations (MICs). […] The stock solution was further diluted in Mueller Hinton Broth (MHB). Stock solutions were stored at −80° C.
(§2) The checkerboard assay was performed in microtiter plates. Tigecycline was diluted in the x axis, each column containing a single concentration of tigecycline. Compound 21 was diluted in the y axis, each row containing an equal concentration of the EPI. […] The assay was performed in MHB with a final bacterial inoculum of 5×10^5 CFU/ml (from an early-log phase culture). The microtiter plates were incubated for 20 hours at 35° C. and then read using a microtiter plate reader (Molecular Devices) at 650 nm, as well as by visual observation using a microtiter plate-reading mirror.

Klebsiella pneumonia 79 = assay: Antibiotic MIC with fixed concentration of compound 21, Klebsiella pneumonia 79; assay type: cell-based
Experimental: (§3) To further characterize the clinical potential of tigecycline/EPI combinations, the microbiological activity of tigecycline in combination with compound 21 was investigated using clinical isolates of P. aeruginosa and other gram-negative bacteria. In several experiments, described below, the impact of a fixed concentration of compound 21 (2.5 μg/ml) on susceptibility to tigecycline was determined.
(§4) The impact of compound 21 on the activity of tigecycline against representative members of Enterobacteriacaea was also tested.

[2] = tested on: PAM 1723, MexAB-OprM over-expressed, ΔMexCD-OprJ ΔMexEF-OprN; assay: microbe, parasite or virus in culture; assay type: cell-based, P. aeruginosa; parameters: Tigecycline MIC in the presence of Compound 21: unit not given here; conditions: PAM 1723
Experimental: as §1, §2

[3] = tested on: PAM 1738, MexCD-OprJ over-expressed, ΔMexAB-OprM ΔMexEF-OprN; assay: microbe, parasite or virus in culture; assay type: cell-based, P. aeruginosa; parameters: Tigecycline MIC in the presence of Compound 21: unit not given here; conditions: PAM 1738
Experimental: as §1, §2

[4] = tested on: PAM 2466, mexR1, MexAB-OprM and MexXY-OprM over-expressed; assay: microbe, parasite or virus in culture; assay type: cell-based, P. aeruginosa; parameters: Tigecycline MIC in the presence of Compound 21: unit not given here; conditions: PAM 2466
Experimental: as §1, §2

[5] = tested on: PAM 1323, mexZ, MexXY-OprM over-expressed, MexAB-OprM low level; assay: microbe, parasite or virus in culture; assay type: cell-based, P. aeruginosa; parameters: Tigecycline MIC in the presence of Compound 21: unit not given here; conditions: PAM 1323
Experimental: as §1, §2

Klebsiella pneumonia 73 = assay: Antibiotic MIC with fixed concentration of compound 21, Klebsiella pneumonia 73; assay type: cell-based
Experimental: as §3, §4

[6] = tested on: P. aeruginosa strain PAM 1032; assay: Mouse model of P. aeruginosa sepsis infection (tigecycline 50% effective dose); assay type: in vivo
Experimental: Tigecycline and compound 21 were prepared in sterile 0.9% saline. Seventy Swiss-Webster mice (Harlan laboratories) with body weights ranging from 22 to 25 grams at the start of the study were used. Upon receipt, the animals were housed 5 per cage in a room with a controlled environment and were acclimated to laboratory conditions for at least 24 hours prior to the start of dosing. Animals were provided food and water ad libitum. The health status of the animals was determined during the acclimation period and unhealthy animals were not placed on study. Each animal was identified by marking their tails with indelible ink and each cage was identified by animal, group, and study number.
P. aeruginosa strain PAM 1032 was grown in Mueller-Hinton Broth (MHB) at 35° C. under constant aeration. After 20 hours, the inoculum was sub-cultured into fresh MHB and allowed to regrow at 35° C., under constant aeration, for 4 hours. The inoculum was adjusted to ca. 4×10^7 CFU/ml by correlation of absorbance at 600 nm with predetermined plate counts. The inoculum was then diluted 2-fold in 14% hog-gastric mucin (Sigma, St. Louis, Mo.) for a final inoculum concentration of 2×10^7 CFU/ml. […] At 0 and 2 hours following infection, tigecycline was administered by the subcutaneous route and compound 21 was administered by the intraperitoneal route. […] The susceptibility of the test strain (P. aeruginosa PAM1032, […] MexAB-OprM) to tigecycline was 4 ug/ml, the susceptibility of the test strain to tigecycline in the presence of 2.5 μg/mL of compound 21 was 0.25 μg/mL.

[7] = azithromycin MIC with compound 21
[8] = levofloxacin MIC with compound 21 at […]
[9] = tigecycline MIC with compound 21 at […]

NCCC[C@H](N)C(=O)N[C@H](CCc1ccccc1)C(=O)Nc1cnc2ccccc2c1 [Compound 3, 2-(S),5-Diamino-pentanoic acid [3-phenyl-1-(R)-(quinolin-3-ylcarbamoyl)-propyl]-amide]
5: EPI MPC8 after 4 hours at 37° C., Frosen Human serum (PAM1723; 50% human serum) | EPI MPC8 after 4 hours at 37° C., Frozen Rat serum (PAM1723; 50% rat serum) | EPI MPC8 after 4 hours at 37° C., Saline (PAM1723; saline)

NCCC[C@H](N)C(=O)N[C@H](Cc1ccc(C(F)(F)F)cc1)C(=O)Nc1cnc2ccccc2c1 [Compound 21, 2-(S),5-Diamino-pentanoic acid [1-(R)-(quinolin-3-ylcarbamoyl)-2-(4-trifluoromethyl-phenyl)-ethyl]amide]
0.125: Tig + EPI at […] (MIC) (Klebsiella pneumonia 73; [9])
1: Tigecycline MIC in the presence of Compound 21 ([1]; Compound 21 0.625 μg/ml) | Tigecycline MIC in the presence of Compound 21 ([1]; Compound 21 1.25 μg/ml) | Tigecycline MIC in the presence of Compound 21 ([3]; Compound 21 0.625 μg/ml) | Tigecycline MIC in the presence of Compound 21 ([5]; Compound 21 1.25 μg/ml)
0.25: Tigecycline MIC in the presence of Compound 21 ([1]; Compound 21 5 μg/ml) | Tigecycline MIC in the presence of Compound 21 ([1]; Compound 21 10 μg/ml) | Tigecycline MIC in the presence of Compound 21 ([1]; Compound 21 20 μg/ml) | Tigecycline MIC in the presence of Compound 21 ([1]; Compound 21 40 μg/ml) | Tigecycline MIC in the presence of Compound 21 ([1]; Compound 21 […]) | Azi + EPI (MIC) (Klebsiella pneumonia 79; [7]) | Tig + EPI at […] (MIC) (Klebsiella pneumonia 79; [9]) | Tigecycline MIC in the presence of Compound 21 ([3]; Compound 21 5 μg/ml) | Tigecycline MIC in the presence of Compound 21 ([3]; Compound 21 10 μg/ml) | Tigecycline MIC in the presence of Compound 21 ([3]; Compound 21 20 μg/ml) | Tigecycline MIC in the presence of Compound 21 ([3]; Compound 21 40 μg/ml) | Tigecycline MIC in the presence of Compound 21 ([3]; Compound 21 […])
≦0.125: Azi + EPI (MIC) (Klebsiella pneumonia 73; [7])
2.5 fold: improvement of tigecycline 50% effective dose ([6]; with compound 21)
4: Levo + EPI at […] (MIC) (Klebsiella pneumonia 79; [8]) | Tigecycline MIC in the presence of Compound 21 ([2]; Compound 21 0.625 μg/ml) | Tigecycline MIC in the presence of Compound 21 ([4]; Compound 21 0.625 μg/ml) | Levo + EPI at […] (MIC) (Klebsiella pneumonia 73; [8])
2: Tigecycline MIC in the presence of Compound 21 ([2]; Compound 21 1.25 μg/ml) | Tigecycline MIC in the presence of Compound 21 ([4]; Compound 21 1.25 μg/ml) | Tigecycline MIC in the presence of Compound 21 ([5]; Compound 21 0.625 μg/ml)
0.5: Tigecycline MIC in the presence of Compound 21 ([2]; Compound 21 5 μg/ml) | Tigecycline MIC in the presence of Compound 21 ([2]; Compound 21 10 μg/ml) | Tigecycline MIC in the presence of Compound 21 ([2]; Compound 21 20 μg/ml) | Tigecycline MIC in the presence of Compound 21 ([2]; Compound 21 40 μg/ml) | Tigecycline MIC in the presence of Compound 21 ([2]; Compound 21 […]) | Tigecycline MIC in the presence of Compound 21 ([3]; Compound 21 1.25 μg/ml) | Tigecycline MIC in the presence of Compound 21 ([4]; Compound 21 5 μg/ml) | Tigecycline MIC in the presence of Compound 21 ([4]; Compound 21 10 μg/ml) | Tigecycline MIC in the presence of Compound 21 ([4]; Compound 21 20 μg/ml) | Tigecycline MIC in the presence of Compound 21 ([4]; Compound 21 40 μg/ml) | Tigecycline MIC in the presence of Compound 21 ([4]; Compound 21 […]) | Tigecycline MIC in the presence of Compound 21 ([5]; Compound 21 5 μg/ml) | Tigecycline MIC in the presence of Compound 21 ([5]; Compound 21 10 μg/ml) | Tigecycline MIC in the presence of Compound 21 ([5]; Compound 21 20 μg/ml) | Tigecycline MIC in the presence of Compound 21 ([5]; Compound 21 40 μg/ml) | Tigecycline MIC in the presence of Compound 21 ([5]; Compound 21 […])
approximately 75 mg/k: 50% effective dose of tigecycline in combination with compound 21 ([6]; mice, tigecycline SC, compound 21 IP at 0 and 2 hours)
